From US20240208992A1, “MACROCYCLES AS CFTR MODULATORS” (Idorsia Pharmaceuticals Ltd, priority 2021, published 2024)

Target: human F508del-CFTR (Homo sapiens, UniProt P13569, DEL508-508)
Assay: F508del-CFTR cell surface expression (corrector activity), DiscoveRx ß-galactosidase complementation chemiluminescence assay in recombinant U2OS cell line;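 further: U2OS cells co-expressing ProLink-tagged F508del-CFTR and a membrane-anchored enzyme acceptor, where more surface CFTR restores β-galactosidase activity measured by chemiluminescence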
Conditions: U2OS cells, 16h compound incubation; for EC50: EC50, F508del-CFTR cell surface expression, geomean of several measurements; for Emax: U2OS, in relation to the Emax of the corrector lumacaftor (=100%), arithmetic mean

human F508del-CFTR, sequence (P13569 with tags, fused parts or gaps DEL508-508): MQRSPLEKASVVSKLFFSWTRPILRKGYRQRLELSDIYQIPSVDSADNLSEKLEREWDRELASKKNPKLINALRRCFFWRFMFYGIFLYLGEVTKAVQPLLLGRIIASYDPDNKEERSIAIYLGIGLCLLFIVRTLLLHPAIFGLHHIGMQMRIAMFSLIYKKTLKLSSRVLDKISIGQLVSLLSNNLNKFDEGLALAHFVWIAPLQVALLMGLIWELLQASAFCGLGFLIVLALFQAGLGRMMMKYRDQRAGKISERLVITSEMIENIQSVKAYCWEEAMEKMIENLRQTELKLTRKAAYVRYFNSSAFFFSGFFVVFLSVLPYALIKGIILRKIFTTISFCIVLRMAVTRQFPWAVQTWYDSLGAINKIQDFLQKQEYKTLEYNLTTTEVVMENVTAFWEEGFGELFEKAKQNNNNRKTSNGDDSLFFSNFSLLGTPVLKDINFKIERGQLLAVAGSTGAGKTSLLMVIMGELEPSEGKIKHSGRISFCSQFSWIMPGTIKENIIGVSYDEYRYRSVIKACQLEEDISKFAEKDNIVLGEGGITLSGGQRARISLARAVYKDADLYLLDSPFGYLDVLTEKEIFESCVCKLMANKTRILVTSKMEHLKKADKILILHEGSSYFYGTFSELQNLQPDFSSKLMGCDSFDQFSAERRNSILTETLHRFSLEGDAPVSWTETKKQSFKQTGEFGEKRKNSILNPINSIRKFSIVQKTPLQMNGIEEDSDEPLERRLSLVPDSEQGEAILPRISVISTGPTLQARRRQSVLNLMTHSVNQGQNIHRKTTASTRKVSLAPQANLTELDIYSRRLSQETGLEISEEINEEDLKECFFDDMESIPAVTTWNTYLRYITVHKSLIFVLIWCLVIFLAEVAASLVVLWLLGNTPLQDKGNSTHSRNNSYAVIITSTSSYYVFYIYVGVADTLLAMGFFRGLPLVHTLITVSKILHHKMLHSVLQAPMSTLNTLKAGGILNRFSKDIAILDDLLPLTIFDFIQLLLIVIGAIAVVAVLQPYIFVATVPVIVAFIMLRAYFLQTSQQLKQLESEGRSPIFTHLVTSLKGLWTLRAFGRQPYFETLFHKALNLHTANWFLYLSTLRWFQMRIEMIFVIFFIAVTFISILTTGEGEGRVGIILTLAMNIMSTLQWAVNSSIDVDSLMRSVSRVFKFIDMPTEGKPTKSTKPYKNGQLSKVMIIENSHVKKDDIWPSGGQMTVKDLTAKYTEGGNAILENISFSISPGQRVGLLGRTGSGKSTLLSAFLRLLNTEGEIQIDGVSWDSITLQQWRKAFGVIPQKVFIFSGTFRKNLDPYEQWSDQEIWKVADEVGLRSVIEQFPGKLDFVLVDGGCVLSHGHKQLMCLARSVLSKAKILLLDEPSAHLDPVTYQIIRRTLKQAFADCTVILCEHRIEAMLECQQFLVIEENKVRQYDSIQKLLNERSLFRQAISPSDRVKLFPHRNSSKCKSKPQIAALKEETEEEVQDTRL

SMILES	EC50 [nM]	Emax [%]
CC(C)C[C@H]1C(=O)N(C)[C@H](Cc2nc(C(F)(F)F)no2)C(=O)N[C@H](Cc2ccccc2)COc2ccc3ncc(F)cc3c2C(=O)N[C@H](C(=O)NCCc2nc(C3CC3)no2)CC(=O)N1C [Example 964, (3S,7S,10R,13R)-13-benzyl-N-(2-(3-cyclopropyl-1,2,4-oxadiazol-5-yl)ethyl)-20-fluoro-7-isobutyl-6,9-dimethyl-1,5,8,11-tetraoxo-10-((3-(trifluoromethyl)-1,2,4-oxadiazol-5-yl)methyl)-1,2,3,4,5,6,7,8,9,10,11,12,13,14-tetradecahydro-[1]oxa[4,7,10,14]tetraazacycloheptadecino[16,17-f]quinoline-3-carboxamide]	21	418
Cc1cc(CCNC(=O)[C@@H]2CC(=O)N(C)[C@@H](CC(C)C)C(=O)N(C)[C@H](Cc3nc(C(F)(F)F)no3)C(=O)N[C@H](Cc3ccccc3)COc3ccc4ncc(F)cc4c3C(=O)N2)on1 [Example 965, (3S,7S,10R,13R)-13-benzyl-20-fluoro-7-isobutyl-6,9-dimethyl-N-(2-(3-methylisoxazol-5-yl)ethyl)-1,5,8,11-tetraoxo-10-((3-(trifluoromethyl)-1,2,4-oxadiazol-5-yl)methyl)-1,2,3,4,5,6,7,8,9,10,11,12,13,14-tetradecahydro-[1]oxa[4,7,10,14]tetraazacycloheptadecino[16,17-f]quinoline-3-carboxamide]	32	453
CC(C)C[C@H]1C(=O)N(C)[C@H](Cc2nc(C(F)(F)F)no2)C(=O)N[C@H](Cc2ccccc2)COc2ccc3ncc(F)cc3c2C(=O)N[C@H](C(=O)NC[C@@H](O)c2nc(C3CC3)no2)CC(=O)N1C [Example 966, (3S,7S,10R,13R)-13-benzyl-N-((R)-2-(3-cyclopropyl-1,2,4-oxadiazol-5-yl)-2-hydroxyethyl)-20-fluoro-7-isobutyl-6,9-dimethyl-1,5,8,11-tetraoxo-10-((3-(trifluoromethyl)-1,2,4-oxadiazol-5-yl)methyl)-1,2,3,4,5,6,7,8,9,10,11,12,13,14-tetradecahydro-[1]oxa[4,7,10,14]tetraazacycloheptadecino[16,17-f]quinoline-3-carboxamide]	82	404
COc1noc(CCNC(=O)[C@@H]2CC(=O)N(C)[C@@H](CC(C)C)C(=O)N(C)[C@H](CC(F)F)C(=O)N[C@H](Cc3ccccc3)COc3ccc4ncc(F)cc4c3C(=O)N2)c1F [Example 967, (3S,7S,10R,13R)-13-benzyl-10-(2,2-difluoroethyl)-20-fluoro-N-(2-(4-fluoro-3-methoxyisoxazol-5-yl)ethyl)-7-isobutyl-6,9-dimethyl-1,5,8,11-tetraoxo-1,2,3,4,5,6,7,8,9,10,11,12,13,14-tetradecahydro-[1]oxa[4,7,10,14]tetraazacycloheptadecino[16,17-f]quinoline-3-carboxamide]	92	472
COc1noc(CCNC(=O)[C@@H]2CC(=O)N(C)[C@@H](CC(C)C)C(=O)N(C)[C@H](CC(F)F)C(=O)N[C@H](Cc3ccccc3)COc3cc(C)nc(OC)c3C(=O)N2)c1F [Example 968, (3R,6R,9S,13S)-3-benzyl-6-(2,2-difluoroethyl)-N-(2-(4-fluoro-3-methoxyisoxazol-5-yl)ethyl)-9-isobutyl-16-methoxy-7,10,18-trimethyl-5,8,11,15-tetraoxo-2,3,4,5,6,7,8,9,10,11,12,13,14,15-tetradecahydropyrido[3,4-p][1]oxa[4,7,10,14]tetraazacycloheptadecine-13-carboxamide]	226	478
COc1noc(CCNC(=O)[C@@H]2CC(=O)N(C)[C@@H](CC(C)C)C(=O)N(C)C3(CC(F)(F)C3)C(=O)N[C@H](Cc3ccccc3)COc3ccc4ncc(F)cc4c3C(=O)N2)c1F [Example 969, (3′S,7′S,13′R)-13′-benzyl-3,3,20′-trifluoro-N-(2-(4-fluoro-3-methoxyisoxazol-5-yl)ethyl)-7′-isobutyl-6′,9′-dimethyl-1′,5′,8′,11′-tetraoxo-2′,3′,4′,5′,6′,7′,8′,9′,11′,12′,13′,14′-dodecahydro-1′H-spiro[cyclobutane-1,10′-[1]oxa[4,7,10,14]tetraazacycloheptadecino[16,17-f]quinoline]-3′-carboxamide]	142	452
COc1noc(CCNC(=O)[C@@H]2CC(=O)N(C)[C@@H](CC(C)C)C(=O)N(C)[C@H](CC(F)F)C(=O)N[C@H](Cc3ccccc3)COc3ccc4cnc(C)cc4c3C(=O)N2)c1F [Example 970, (3S,7S,10R,13R)-13-benzyl-10-(2,2-difluoroethyl)-N-(2-(4-fluoro-3-methoxyisoxazol-5-yl)ethyl)-7-isobutyl-6,9,20-trimethyl-1,5,8,11-tetraoxo-1,2,3,4,5,6,7,8,9,10,11,12,13,14-tetradecahydro-[1]oxa[4,7,10,14]tetraazacycloheptadecino[16,17-f]isoquinoline-3-carboxamide]	109	463
COc1noc(CCNC(=O)[C@@H]2CC(=O)N(C)[C@@H](CC(C)C)C(=O)N(C)[C@H](Cc3noc(C(C)(C)C)n3)C(=O)N[C@H](Cc3ccccc3)COc3ccc4ncc(F)cc4c3C(=O)N2)n1 [Example 971, (3S,7S,10R,13R)-13-benzyl-10-((5-(tert-butyl)-1,2,4-oxadiazol-3-yl)methyl)-20-fluoro-7-isobutyl-N-(2-(3-methoxy-1,2,4-oxadiazol-5-yl)ethyl)-6,9-dimethyl-1,5,8,11-tetraoxo-1,2,3,4,5,6,7,8,9,10,11,12,13,14-tetradecahydro-[1]oxa[4,7,10,14]tetraazacycloheptadecino[16,17-f]quinoline-3-carboxamide]	163	482
COc1cc(CCNC(=O)[C@@H]2CC(=O)N(C)[C@@H](CC(C)C)C(=O)N(C)[C@H](Cc3noc(C(C)(C)C)n3)C(=O)N[C@H](Cc3ccccc3)COc3ccc4ncc(F)cc4c3C(=O)N2)on1 [Example 972, (3S,7S,10R,13R)-13-benzyl-10-((5-(tert-butyl)-1,2,4-oxadiazol-3-yl)methyl)-20-fluoro-7-isobutyl-N-(2-(3-methoxyisoxazol-5-yl)ethyl)-6,9-dimethyl-1,5,8,11-tetraoxo-1,2,3,4,5,6,7,8,9,10,11,12,13,14-tetradecahydro-[1]oxa[4,7,10,14]tetraazacycloheptadecino[16,17-f]quinoline-3-carboxamide]	128	436
COc1noc(CCNC(=O)[C@@H]2CC(=O)N(C)[C@@H](CC(C)C)C(=O)N3CCCC[C@@H]3C(=O)N[C@H](Cc3ccccc3)COc3ccc4ncc(F)cc4c3C(=O)N2)c1F [Example 973, (9S,13S,19aR,22R)-22-benzyl-5-fluoro-N-(2-(4-fluoro-3-methoxyisoxazol-5-yl)ethyl)-13-isobutyl-12-methyl-7,11,14,20-tetraoxo-7,8,9,10,11,12,13,14,17,18,19,19a,20,21,22,23-hexadecahydro-16H-pyrido[2′,1′:6,7][1]oxa[4,7,10,14]tetraazacycloheptadecino[16,17-f]quinoline-9-carboxamide]	117	446
COc1noc(CCNC(=O)[C@@H]2CC(=O)N(C)[C@@H](CC(C)C)C(=O)N(C)[C@H](CC(F)(F)F)C(=O)N[C@H](Cc3ccccc3)COc3cc(C)c4ncccc4c3C(=O)N2)n1 [Example 975, (3S,7S,10R,13R)-13-benzyl-7-isobutyl-N-(2-(3-methoxy-1,2,4-oxadiazol-5-yl)ethyl)-6,9,17-trimethyl-1,5,8,11-tetraoxo-10-(2,2,2-trifluoroethyl)-1,2,3,4,5,6,7,8,9,10,11,12,13,14-tetradecahydro-[1]oxa[4,7,10,14]tetraazacycloheptadecino[16,17-f]quinoline-3-carboxamide]	119	497
CCOCC[C@@H]1C(=O)N[C@H](Cc2ccccc2)COc2ccc3ncc(F)cc3c2C(=O)N[C@H](C(=O)NCCc2nc(C3CC3)no2)CC(=O)N(C)[C@@H](CC(C)C)C(=O)N1C [Example 976, (3S,7S,10R,13R)-13-Benzyl-N-(2-(3-cyclopropyl-1,2,4-oxadiazol-5-yl)ethyl)-10-(2-ethoxyethyl)-20-fluoro-7-isobutyl-6,9-dimethyl-1,5,8,11-tetraoxo-1,2,3,4,5,6,7,8,9,10,11,12,13,14-tetradecahydro-[1]oxa[4,7,10,14]tetraazacycloheptadecino[16,17-f]quinoline-3-carboxamide]	179	348
COc1cc(CCNC(=O)[C@@H]2CC(=O)N(C)[C@@H](CC(C)C)C(=O)N(C)[C@H](CCOc3cnc(C)cn3)C(=O)N[C@H](Cc3ccccc3)COc3cc(C)nc(OC)c3C(=O)N2)on1 [Example 977, (3R,6R,9S,13S)-3-benzyl-9-isobutyl-16-methoxy-N-(2-(3-methoxyisoxazol-5-yl)ethyl)-7,10,18-trimethyl-6-(2-((5-methylpyrazin-2-yl)oxy)ethyl)-5,8,11,15-tetraoxo-2,3,4,5,6,7,8,9,10,11,12,13,14,15-tetradecahydropyrido[3,4-p][1]oxa[4,7,10,14]tetraazacycloheptadecine-13-carboxamide]	281	410
COc1cc(OCC[C@@H]2C(=O)N[C@H](Cc3ccccc3)COc3cc(C)nc(OC)c3C(=O)N[C@H](C(=O)NCCc3cc(OC)no3)CC(=O)N(C)[C@@H](CC(C)C)C(=O)N2C)ccn1 [Example 978, (3R,6R,9S,13S)-3-benzyl-9-isobutyl-16-methoxy-N-(2-(3-methoxyisoxazol-5-yl)ethyl)-6-(2-((2-methoxypyridin-4-yl)oxy)ethyl)-7,10,18-trimethyl-5,8,11,15-tetraoxo-2,3,4,5,6,7,8,9,10,11,12,13,14,15-tetradecahydropyrido[3,4-p][1]oxa[4,7,10,14]tetraazacycloheptadecine-13-carboxamide]	129	457
